In series [1] the test system is MV4-11. In words: Antileukemic activity against human MV4-11 cell line assessed as inhibition of cell growth incubated for 48 hrs by MTT assay. Type of series: functional, cell-based. As to conditions: MV4-11, 48 h. In general terms: Tetrazolium assays rely on reduction of a dye to a coloured formazan, in cell work by metabolically active cells.
Series [2] has as its system KU812 cell line. Kind of series: Antileukemic activity against human KU812 cell line assessed as inhibition of cell growth incubated for 48 hrs by MTT assay. Format: functional, cell-based. As to conditions: KU812, 48 h.
Series [3] has as its system KCL-22. Kind of series: Antileukemic activity against human KCL-22 assessed as cell viability incubated for 48 hrs by MTT assay. Format: functional, cell-based. As to conditions: KCL-22, 48 h.
Series [4] in a line: Cytotoxicity against Bone marrow cell (unknown origin) assessed as cell viability incubated for 48 hrs by MTT assay. Format: toxicity, cell-based. As to conditions: bone marrow cells (unknown origin).
The subject of series [5] is K562. In words: Antileukemic activity against human K562 assessed as cell viability incubated for 48 hrs by MTT assay. The following applies: K562, 48 h. Format: functional, cell-based.
The nature of series [6]: Cytotoxicity against human HS-27A assessed as cell viability incubated for 48 hrs by MTT assay. Type of series: toxicity, cell-based. As to conditions: HS-27A cells.
Series [7] relates to MOLM-13. Kind of series: Antileukemic activity against human MOLM-13 assessed as cell viability incubated for 48 hrs by MTT assay. As to conditions: MOLM-13, 48 h. Format: functional, cell-based.

SMILES strings stand for the structures.

Broadly, the EC50 is the concentration needed to bring the measured effect to its halfway point. `CC1(C)CCN(CCOc2ccc3[nH]ccc3c2)c2cccc(-c3cncnc3)c21`: the values for the EC50 in series [1] and in series [2] were 51.9 µM and > 100 µM, respectively.

Turning to `CC1(C)CCN(CCOc2ccc3[nH]ccc3c2)c2ccc(-c3cnccn3)cc21`, the EC50 came out at 7.7 µM in series [1] and 48.1 µM in series [2].

With `CC1(C)CCN(CCOc2ccc3[nH]ccc3c2)c2ccc(-c3cnc(N)cn3)cc21`, the EC50 in series [1] was 13.7 µM; in series [2], 29.2 µM.

As to `O=c1[nH]c2ccccc2n1C1CCN(CCCC(c2ccc(F)cc2)c2ccc(F)cc2)CC1` [PIMOZIDE], the EC50 in series [1] turned out to be 3.2 µM; in series [3], 9.3 µM; in series [5], 3.5 µM; in series [7], 5.9 µM; in series [2], 2.9 µM. For the same compound, the EC50 at 48 h was 18.2 µM in series [4] and 57.5 µM in series [6].

As to `CC1(C)CCN(CCOc2ccc3[nH]ccc3c2)c2cc(Cc3ccncc3)ccc21`, in series [1], the EC50 was found to be 14.3 µM.

Consider `CC1(C)CCN(CCOc2ccc3[nH]ccc3c2)c2ccc(-c3cnc(Cl)nc3)cc21`, for which the EC50 in series [1] came out at 2.4 µM; in series [2], 1.3 µM.

In the case of `CC1(C)CCN(CCOc2ccc3[nH]ccc3c2)c2cccc(Cc3cccnc3)c21`, the EC50 in series [1] worked out at 3.1 µM; in series [2], 9.3 µM.

Consider `CC1(C)CCN(CCOc2ccc3[nH]ccc3c2)c2ccc(-c3cnc(C#N)nc3)cc21`, for which the EC50 in series [1] turned out to be 3.5 µM; in series [2], 2.4 µM.

Take `CC1(C)CCN(CCOc2ccc3[nH]ccc3c2)c2cccc(-c3cnccn3)c21`: the EC50 in series [1] came out at 15.3 µM; in series [2] it was 39.3 µM.

On to `CC1(C)CCN(CCOc2ccc3[nH]ccc3c2)c2ccc(-c3cncnc3)cc21`, for which the EC50 in series [1] came out at 4.2 µM; in series [2] it was 8.3 µM.

Take `CC1(C)CCN(CCOc2ccc3[nH]ccc3c2)c2ccc(-c3cnc(N)nc3)cc21`: the EC50 is 0.4 µM in series [1]; 0.3 µM in series [3]; 2.9 µM in series [5]; 0.3 µM in series [7]; 2.3 µM in series [2]. Further, the EC50 at 48 h came out at 14.5 µM in series [4] and 43.9 µM in series [6].

As for `CC1(C)CCN(CCOc2ccc3[nH]ccc3c2)c2cccc(-c3ccnnc3)c21`, the EC50 in series [1] came to 14 µM; in series [2] it was 23.5 µM.

As for `CC1(C)CCN(CCOc2ccc3[nH]ccc3c2)c2cccc(-c3cnc(Cl)nc3)c21`, the EC50 in series [1] came out at 9 µM; in series [2], 6.7 µM.

As to `CC(C)(C)c1cc(CN(C(=O)CN(Cc2ccc(Cl)cc2)S(=O)(=O)c2c(F)c(F)c(F)c(F)c2F)c2ccc(C(=O)O)cc2)cc(C(C)(C)C)c1`, the EC50 in series [1] was 2.6 µM; in series [3], 15.3 µM; in series [5] it was 10.1 µM; in series [7], 2.8 µM; in series [2], 4.3 µM. In addition, the EC50 at 48 h in series [4] is 18.1 µM; in series [6] it was 27.8 µM.

`CC1(C)CCN(CCOc2ccc3[nH]ccc3c2)c2cc(Cc3cccnc3)ccc21`: the EC50 in series [1] turned out to be 20.5 µM; in series [2], 25.1 µM.

As to `CC1(C)CCN(CCOc2ccc3[nH]ccc3c2)c2cc(Cc3ccccn3)ccc21`, the EC50 in series [1] is 34.2 µM; in series [2] it was > 100 µM.

`CC1(C)CCN(CCOc2ccc3[nH]ccc3c2)c2ccc(-c3cccnc3)cc21`: the EC50 in series [1] was 3.6 µM; in series [3], 5.6 µM; in series [5] it was 8.7 µM; in series [7] it was 3.3 µM; in series [2] it was 5.4 µM. Also, the EC50 at 48 h in series [4] came out at 57.6 µM; in series [6], 63.3 µM.

On to `CC1(C)CCN(CCOc2ccc3[nH]ccc3c2)c2cccc(Cc3ccncc3)c21`, for which the EC50 in series [1] came out at 1.3 µM; in series [2] it was 2.7 µM.

On to `CC1(C)CCN(CCOc2ccc3[nH]ccc3c2)c2ccc(Cc3ccncc3)cc21`, for which the EC50 turned out to be 25.8 µM in series [1] and 21.3 µM in series [2].

Turning to `CC1(C)CCN(CCOc2ccc3[nH]ccc3c2)c2cccc(-c3cnc(C#N)nc3)c21`, the results for the EC50 in series [1] and in series [2] were 5.1 µM and 4.7 µM, respectively.

For `CC1(C)CCN(CCOc2ccc3[nH]ccc3c2)c2cccc(-c3ccncc3)c21`, the EC50 in series [1] was 2.8 µM; in series [2], 2.5 µM.

As to `CC1(C)CCN(CCOc2ccc3[nH]ccc3c2)c2cccc(Cc3ccccn3)c21`, the EC50 was found to be 12.4 µM in series [1] and 74.4 µM in series [2].

As to `CC1(C)CCN(CCOc2ccc3[nH]ccc3c2)c2cccc(-c3cccnc3)c21`, the results for the 50% effective concentration (EC50) in series [1] and in series [2] were 5.9 µM and 5.8 µM, respectively.

`CC1(C)CCN(CCOc2ccc3[nH]ccc3c2)c2cccc(-c3cnc(N)cn3)c21`: the values for the EC50 in series [1] and in series [2] were 14.6 µM and 21.2 µM, respectively.

As to `CC1(C)CCN(CCOc2ccc3[nH]ccc3c2)c2ccc(-c3ccnnc3)cc21`, the figures for the EC50 in series [1] and in series [2] were 16 µM and 44.6 µM, respectively.

Turning to `CC1(C)CCN(CCOc2ccc3[nH]ccc3c2)c2ccc(Cc3cccnc3)cc21`, the EC50 in series [1] was found to be 4.9 µM; in series [2] it was 5.3 µM.

Regarding `CC1(C)CCN(CCOc2ccc3[nH]ccc3c2)c2ccc(-c3ncccn3)cc21`, the EC50 in series [1] amounted to 4.5 µM; in series [2], 29.5 µM.

Take `CC1(C)CCN(CCOc2ccc3[nH]ccc3c2)c2ccc(Cc3ccccn3)cc21`: the EC50 in series [1] worked out at 7.7 µM; in series [2], 11.5 µM.

These data come from ChEMBL document CHEMBL6121010, “Novel antileukemic compound with sub-micromolar potency against STAT5 addicted myeloid leukemia cells” (Eur J Med Chem, 2025).
